Laboratory results reported in PubChem BioAssay AID1259408 (Genetic Toxicology Data Bank (GENE-TOX), 2018).
Activity calls are given as the source filed them. How the calls were made is not given here.

System: GENE-TOX genotoxicity assays, various organisms and cells
Test: GENE-TOX mutagenicity studies
Conditions: for call: Assay Type: In vivo carcinogenicity studies
[1] = Species/Cell Type: Allium cepa, Assay Type: Chromosome aberrations, Assay Code: ALC+, Evaluation Type: Evaluation A (Pre-1980)
[2] = Species/Cell Type: Rodents, Sex: Male, Assay Type: Dominant lethal test, Assay Code: DLTT, Evaluation Type: Evaluation A (Pre-1980)
[3] = Species/Cell Type: Drosophila melanogaster, Assay Type: Sex-linked recessive lethal gene mutation, Assay Code: SRL+, Evaluation Type: Evaluation A (Pre-1980)
[4] = Species/Cell Type: Salmonella typhimurium (one or more of the five standard strains: TA98, TA100, TA1535, TA1537, and TA1538), Assay Type: Histidine reverse gene mutation, Ames assay, Assay Code: SAL+, Evaluation Type: Evaluation A (Pre-1980)
[5] = Species/Cell Type: Human lymphocytes, Assay Type: Sister-chromatid exchange (SCE) in vitro, Assay Code: SCLT, Evaluation Type: Evaluation B (Post-1980)
[6] = Species/Cell Type: Human, Assay Type: Sister-chromatid exchange (SCE) in vitro, Assay Code: SC1T, Evaluation Type: Evaluation B (Post-1980)
[7] = Species/Cell Type: Mammalian polychromatic erythrocytes, Assay Type: Micronucleus test, chromosome aberrations, Assay Code: MNTT, Evaluation Type: Evaluation B (Post-1980)
[8] = Species/Cell Type: Salmonella typhimurium (one or more of the five standard strains: TA98, TA100, TA1535, TA1537, and TA1538), Assay Type: Histidine reverse gene mutation, Ames assay, Assay Code: SALT, Evaluation Type: Evaluation A (Pre-1980)

For `CC(=O)[O-].CC(=O)[O-].[Co+2]`, the mutagenic call (Species/Cell Type: Syrian hamster embryo (SA7/SHE) cells, Assay Type: Cell transformation, viral enhanced, Assay Code: CT7+, Evaluation Type: Evaluation A (Pre-1980)) was “active; positive”.
In the case of `Cc1ccc([N+](=O)[O-])c(O)c1`, the mutagenic call [1] is reported as “active; positive”.
In the case of `CN(C)c1ccc2cc3ccc(=[N+](C)C)cc-3sc2c1`, the mutagenic call (Species/Cell Type: Saccharomyces cerevisiae, Assay Type: Reverse gene mutation, Assay Code: YER-, Evaluation Type: Evaluation A (Pre-1980)) is reported as “inactive; negative”.
With `CCC1(c2ccccc2)C(=O)NC(=O)N(C(=O)c2ccccc2)C1=O` (centres undefined) the mutagenic call [2] was “no conclusion” and the mutagenic call (Species/Cell Type: Salmonella typhimurium, Assay Type: Forward and reverse gene mutation, host-mediated assay, Assay Code: HMA-, Evaluation Type: Evaluation A (Pre-1980)) was “inactive; negative”.
In the case of `Cc1ccc2ccc3c4ccccc4cc4ccc1c2c43`, the mutagenic call [3] is reported as “active; positive”.
`O=C(O)CSc1ccc2c3c(cccc13)C(=O)c1ccccc1-2` was tested, and the mutagenic call [4] was “active; positive”.
For `COc1cc([C@@H]2c3cc4c(cc3[C@@H](O[C@@H]3O[C@H](CO)[C@@H](O)[C@H](O)[C@H]3O)[C@H]3COC(=O)[C@H]23)OCO4)cc(OC)c1O`, the mutagenic call (Species/Cell Type: Chinese hamster ovary (CHO) cells, Assay Type: Forward gene mutation at the HPRT locus, Assay Code: CHO+, Evaluation Type: Evaluation B (Post-1980)) was “active; positive”.
With `CCC1(c2ccccc2)CCC(=O)NC1=O` (centres undefined) the mutagenic call (Species/Cell Type: Drosophila melanogaster, Assay Type: Aneuploidy, sex chromosome gain, chromosome aberrations, Assay Code: DAG-M, Evaluation Type: Evaluation A (Pre-1980)) was “inactive; negative” and the mutagenic call (Species/Cell Type: Drosophila melanogaster, Assay Type: Aneuploidy, whole sex chromosome loss, chromosome aberrations, Assay Code: DAC-M, Evaluation Type: Evaluation A (Pre-1980)) was “inactive; negative”.
With `Oc1ccc(O)cc1` the mutagenic call [1] was “active; positive”, the mutagenic call (Species/Cell Type: Human lymphocytes, Assay Type: Sister-chromatid exchange (SCE) in vitro, Assay Code: SCL+D, Dose Response: With dose response, Evaluation Type: Evaluation B (Post-1980)) was “active; positive” and the mutagenic call (Species/Cell Type: Human, Assay Type: Sister-chromatid exchange (SCE) in vitro, Assay Code: SC1+D, Dose Response: With dose response, Evaluation Type: Evaluation B (Post-1980)) was “active; positive”. For the same compound, the mutagenic call (Species/Cell Type: Mammalian polychromatic erythrocytes, Assay Type: Micronucleus test, chromosome aberrations, Assay Code: MNT+, Evaluation Type: Evaluation B (Post-1980)) was “active; positive”.
`O=C1NS(=O)(=O)c2ccccc21` was tested, and the mutagenic call (Species/Cell Type: Allium cepa, Assay Type: Chromosome aberrations, Assay Code: ALC+D, Dose Response: With dose response, Evaluation Type: Evaluation A (Pre-1980)) was “active; positive”, the mutagenic call [3] was “active; positive” and the mutagenic call (Species/Cell Type: Drosophila melanogaster, Sex: Male, Assay Type: Heritable translocation test, chromosome aberrations, Assay Code: DHTT, Evaluation Type: Evaluation A (Pre-1980)) was “no conclusion”. For the same compound, the mutagenic call (Species/Cell Type: Escherichia coli polA (W3110 vs P3478), Assay Type: Rec-assay, DNA effects (bacterial DNA repair), Assay Code: RE2-, Evaluation Type: Evaluation A (Pre-1980)) was “inactive; negative”, the mutagenic call (Species/Cell Type: Escherichia coli polA (W3119 vs P3478), Assay Type: Rec-assay, DNA effects (bacterial DNA repair), Assay Code: RE1-, Evaluation Type: Evaluation A (Pre-1980)) was “inactive; negative” and the mutagenic call (Species/Cell Type: Human lymphocytes, Assay Type: Sister-chromatid exchange (SCE) in vitro, Assay Code: SCL+D, Dose Response: With dose response, Evaluation Type: Evaluation A (Pre-1980)) was “active; positive”. The mutagenic call [5] was “no conclusion”, the mutagenic call (Species/Cell Type: Human, Assay Type: Sister-chromatid exchange (SCE) in vitro, Assay Code: SC1+D, Dose Response: With dose response, Evaluation Type: Evaluation A (Pre-1980)) was “active; positive” and the mutagenic call [6] was “no conclusion”. For the same compound, the mutagenic call [7] was “no conclusion”, the mutagenic call (Species/Cell Type: Mouse (C3H/10T1/2) cells, Assay Type: Cell transformation, Assay Code: CTH-, Evaluation Type: Evaluation A (Pre-1980)) was “inactive; negative” and the mutagenic call (Species/Cell Type: Mouse lymphoma (L5178Y) cells, Assay Type: Forward gene mutation at the thymidine kinase (TK) locus, chromosome aberrations, Assay Code: L51T, Evaluation Type: Evaluation A (Pre-1980)) was “no conclusion”. For the same compound, the mutagenic call (Species/Cell Type: Mouse, Sex: Male, Assay Type: Sperm morphology, Assay Code: SPI-, Evaluation Type: Evaluation A (Pre-1980)) was “inactive; negative”, the mutagenic call (Species/Cell Type: Neurospora crassa, Assay Type: Aneuploidy, chromosome aberrations, Assay Code: NEN-, Evaluation Type: Evaluation A (Pre-1980)) was “inactive; negative” and the mutagenic call (Species/Cell Type: Nonhuman, Assay Type: Sister-chromatid exchange (SCE) in vitro, Assay Code: SC2+D, Dose Response: With dose response, Evaluation Type: Evaluation A (Pre-1980)) was “active; positive”. The mutagenic call (Species/Cell Type: Nonhuman, Assay Type: Sister-chromatid exchange (SCE) in vivo, Assay Code: SC3+D, Dose Response: With dose response, Evaluation Type: Evaluation B (Post-1980)) was “active; positive”, the mutagenic call (Species/Cell Type: Rodents, Sex: Male, Assay Type: Dominant lethal test, Assay Code: DLT+, Evaluation Type: Evaluation A (Pre-1980)) was “active; positive” and the mutagenic call (Species/Cell Type: Saccharomyces cerevisiae, Assay Type: Aneuploidy, chromosome aberrations, Assay Code: YEN+, Evaluation Type: Evaluation A (Pre-1980)) was “active; positive”. The mutagenic call (Species/Cell Type: Saccharomyces cerevisiae, Assay Type: Mitotic recombination or gene conversion, Assay Code: YEC+, Evaluation Type: Evaluation A (Pre-1980)) was “active; positive”, the mutagenic call (Species/Cell Type: Saccharomyces cerevisiae, Assay Type: Mitotic recombination or gene conversion, Assay Code: YEH+/-*, Activation: With metabolic activation, Evaluation Type: Evaluation A (Pre-1980)) was “inactive; positive without activation, negative with activation” and the mutagenic call (Species/Cell Type: Saccharomyces cerevisiae, Assay Type: Reverse gene mutation, Assay Code: YER+, Evaluation Type: Evaluation A (Pre-1980)) was “active; positive”. The mutagenic call (Species/Cell Type: Salmonella typhimurium (one or more of the five standard strains: TA98, TA100, TA1535, TA1537, and TA1538), Assay Type: Histidine reverse gene mutation, Ames assay, Assay Code: SAL-, Evaluation Type: Evaluation A (Pre-1980)) was “inactive; negative”, the mutagenic call (Species/Cell Type: Salmonella typhimurium, Assay Type: Forward and reverse gene mutation, body fluid assay, Assay Code: BFU+, Evaluation Type: Evaluation A (Pre-1980)) was “active; positive” and the mutagenic call (Species/Cell Type: Salmonella typhimurium, Assay Type: Forward and reverse gene mutation, host-mediated assay, Assay Code: HMA+, Evaluation Type: Evaluation A (Pre-1980)) was “active; positive”. For the same compound, the mutagenic call (Species/Cell Type: Syrian hamster embryo (SHE) cells, Assay Type: Cell transformation, clonal assay, Assay Code: CTC-, Evaluation Type: Evaluation A (Pre-1980)) was “inactive; negative”.
In the case of `Oc1c(Oc2ccc(Cl)cc2Cl)cc(Cl)c(Cl)c1Cl`, the mutagenic call [5] is reported as “no conclusion”, the mutagenic call [6] is reported as “no conclusion” and the mutagenic call (Species/Cell Type: Mouse, Sex: Female, Assay Type: Spot test, gene mutation, Assay Code: MSTT, Evaluation Type: Evaluation A (Pre-1980)) is reported as “no conclusion”. For the same compound, the mutagenic call (Species/Cell Type: Saccharomyces cerevisiae, Assay Type: Forward gene mutation, Assay Code: YEF+, Evaluation Type: Evaluation A (Pre-1980)) was “active; positive”, the mutagenic call (Species/Cell Type: Saccharomyces cerevisiae, Assay Type: Mitotic recombination or gene conversion, Assay Code: YEC-, Evaluation Type: Evaluation A (Pre-1980)) was “inactive; negative” and the mutagenic call (Species/Cell Type: Saccharomyces cerevisiae, Assay Type: Mitotic recombination or gene conversion, Assay Code: YEH+, Evaluation Type: Evaluation A (Pre-1980)) was “active; positive”.
`O=C(NO)c1ccc2ccccc2c1` was tested, and the mutagenic call (Species/Cell Type: Nonhuman, Assay Type: Sister-chromatid exchange (SCE) in vitro, Assay Code: SC2+D, Dose Response: With dose response, Evaluation Type: Evaluation B (Post-1980)) was “active; positive” and the mutagenic call [4] was “active; positive”.
With `CCCCc1cc2c(c3ccc4ccccc4c13)CCC2=O` the mutagenic call [8] was “no conclusion”.
`CC(C)(O)C(Cl)(Cl)Cl` was tested, and the mutagenic call [7] was “no conclusion”.
For `CC(C)(Oc1ccc(C2CCCc3ccccc32)cc1)C(=O)O` (centres undefined), the call (Species/Cell Type: Nonhuman, Assay Code: CCG+, Evaluation Type: Evaluation A (Pre-1980)) was “active; positive”.
`Cc1cc2c(C)c3ccccc3c(C)c2c2ccccc12` was tested, and the mutagenic call (Species/Cell Type: Chinese hamster lung (V79) cells, Assay Type: Forward gene mutation at the HPRT or ouabain locus, Assay Code: V79-*, Activation: With metabolic activation, Evaluation Type: Evaluation A (Pre-1980)) was “inactive; negative”.
In the case of `CCN(O)CC`, the mutagenic call [3] is reported as “active; positive”, the mutagenic call (Species/Cell Type: Human diploid fibroblasts, Assay Type: Unscheduled DNA synthesis (UDS) in vitro, DNA effects, Assay Code: UDH+, Evaluation Type: Evaluation A (Pre-1980)) is reported as “active; positive” and the mutagenic call (Species/Cell Type: Mammalian polychromatic erythrocytes, Assay Type: Micronucleus test, chromosome aberrations, Assay Code: MNTT, Evaluation Type: Evaluation A (Pre-1980)) is reported as “no conclusion”. For the same compound, the mutagenic call [2] was “no conclusion”.
For `Cc1cc(O)ccc1[N+](=O)[O-]`, the mutagenic call [1] was “active; positive”.
For `Nc1ccc(O)c2c1C(=O)c1ccccc1C2=O`, the mutagenic call [4] was “active; positive”.
In the case of `CCOS(=O)(=O)OCCOS(=O)(=O)OCC`, the mutagenic call (Species/Cell Type: Schizosaccharomyces pombe, Assay Type: Reverse gene mutation, Assay Code: YEZ+, Evaluation Type: Evaluation A (Pre-1980)) is reported as “active; positive”.
`CS(=O)(=O)c1ccc([C@H](O)[C@H](CO)NC(=O)C(Cl)Cl)cc1` was tested, and the mutagenic call [8] was “no conclusion”.
For `CC(=O)Nc1nnc(-c2ccc([N+](=O)[O-])o2)s1`, the mutagenic call [4] was “active; positive”.
In the case of `ClCc1cccnc1`, the mutagenic call (Species/Cell Type: Fischer rat embryo (RLV/1706) cells, Assay Type: Cell transformation, viral enhanced, Assay Code: CTR+, Evaluation Type: Evaluation A (Pre-1980)) is reported as “active; positive”, the mutagenic call (Species/Cell Type: Mouse (BALB/c-3T3) cells, Assay Type: Cell transformation, Assay Code: CTB-, Evaluation Type: Evaluation A (Pre-1980)) is reported as “inactive; negative” and the call (Species/Cell Type: Nonhuman, Assay Code: CCG+L, Evaluation Type: Evaluation A (Pre-1980)) is reported as “active; positive”.
For `CN(N=O)C(=O)N[C@@H]1O[C@H](CO)[C@H](O)[C@H](O)[C@H]1O`, the mutagenic call (Species/Cell Type: Chinese hamster lung (V79) cells, Assay Type: Forward gene mutation at the HPRT or ouabain locus, Assay Code: V79+, Evaluation Type: Evaluation A (Pre-1980)) was “active; positive”.
